One assay deals with T1, RAT OXYTOCIN RECEPTOR (Rattus norvegicus, UniProt P70536).
T1 construct: from tissue; host or cells: uterus of day-21 pregnant Holtzman rats, sucrose-gradient membrane fraction
T1 sequence (P70536 1-388): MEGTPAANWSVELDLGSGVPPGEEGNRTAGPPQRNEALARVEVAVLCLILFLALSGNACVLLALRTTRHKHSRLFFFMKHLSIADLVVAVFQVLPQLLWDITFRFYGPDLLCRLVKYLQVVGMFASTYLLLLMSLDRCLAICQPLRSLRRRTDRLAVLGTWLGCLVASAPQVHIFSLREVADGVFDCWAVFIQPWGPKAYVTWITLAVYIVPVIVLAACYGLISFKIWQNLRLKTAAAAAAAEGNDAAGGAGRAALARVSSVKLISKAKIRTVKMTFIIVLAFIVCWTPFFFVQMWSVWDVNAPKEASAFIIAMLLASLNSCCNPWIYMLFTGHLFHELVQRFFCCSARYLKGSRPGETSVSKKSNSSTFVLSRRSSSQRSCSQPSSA
Put plainly: Oxytocin receptor assay, pregnant rat uterus (P21) membranes, 3H-OT competition. It counts as binding. As for the experimental part:
Uterine tissue was removed on day 21 of pregnancy (delivery=Days 211/2 to 221/2) from Holtzman rats. The tissue was emptied of its contents, rinsed in ice cold buffer, cut into small pieces and frozen at -70° C. until homogenization.
(§1) Oxytocin receptors (OTrs) reside on the cell membrane and are present at high concentrations at the end of pregnancy in uterine tissue. Frozen tissue is homogenized in Tris buffer, the homogenate filtered, and the filtrate centrifuged at 1000 g for 15 minutes at 4° C. The supernatant is centrifuged at 40,000 g for 30 minutes and the pellet containing the cell membranes resuspended in 10% sucrose. Density gradient ultracentrifugation is then performed by placing the 10 % sucrose suspension on top of 35% sucrose and centrifuging for 30 minutes in a swing bucket rotor at 105,000 g. The membranes at the interface of the 10%/35% sucrose are removed and resuspended in Tris buffer containing EDTA for 30 minutes. This procedure removes divalent cation and results in dissociation of any endogenously bound OT to the receptor. This mixture is then centrifuged for 15 minutes at 100,000 g and the pellet containing the membrane OTrs resuspended in Tris, PMSF, Mg^++, buffer by sonication.
(§2) The binding assay consist of 0.1 ml of 20,000 cmp of tritium labeled OT (New England Nuclear, […]), 0.1 ml of OT antagonist added at increasing concentration, 0.25 ml of buffer and 0.05 ml of membrane (70-150 ug protein). A nonspecific tube has 100× of cold OTA added to it. The incubation is for 30 minutes at 30 ° C. The membrane is pelleted by centrifugation in ultraclear mini tubes (5×41 mm) for 30 minutes at 105,000 g. The resulting pellet containing the bound ^3 H-OT is dissolved in 0.1N NaOH at 45 ° C. for 30 minutes and this mixture is then placed in liquid scintillation counting fluid and counted for dpms in a scintillation counter.
(§3) The data is analyzed by nonlinear curve fitting methods using McPherson's EBDA (J Pharmacol Methods 14:213-228, 1985) and Munson and Rodbard's LIGAND (Anal Biochem 107:220-239, 1980) program for saturation and competition analysis for determining Kds and Kis.

In another assay the test system is pregnant baboon. Put plainly: Oxytocin challenge test in tethered pregnant baboon (antagonists-response interval). It counts as in vivo. The following applies: for ARI (OTA/ANTI): ratio to ANTAG I. As for the experimental part:
The baboon is an excellent animal model because of its physiologic and anatomic similarity to humans (see articles by our laboratory: Am J Obstet Gynecol. 163:1815-1882, 1990; Am J Obstet Gynecol 165:456-560, 1991; Am J Obstet Gynecol 165:1487-1498, 1991; articles by other laboratories: Endocrine Reviews 11:124-150, 1990; 11:151-176, 1990). Pregnant tethered baboons were studied between 130 to 145 days of pregnancy Delivery=day 184). The oxytocin antagonists were administered as a single bolus injection of 1 mg intra-arterially followed 1 minute later by the infusion of oxytocin. […] This oxytocin antagonist was not produced in our laboratory and is not an oxytocin analog.

The next assay concerns the target T2, HUMAN OXYTOCIN RECEPTOR (Homo sapiens, UniProt P30559).
T2 construct: Oxytocin receptors (OTrs) reside on the cell membrane and are present at high concentrations at the end of pregnancy in uterine tissue; from tissue; host or cells: human myometrium from cesarean section patients, sucrose-gradient membrane fraction
T2 sequence (P30559 1-389): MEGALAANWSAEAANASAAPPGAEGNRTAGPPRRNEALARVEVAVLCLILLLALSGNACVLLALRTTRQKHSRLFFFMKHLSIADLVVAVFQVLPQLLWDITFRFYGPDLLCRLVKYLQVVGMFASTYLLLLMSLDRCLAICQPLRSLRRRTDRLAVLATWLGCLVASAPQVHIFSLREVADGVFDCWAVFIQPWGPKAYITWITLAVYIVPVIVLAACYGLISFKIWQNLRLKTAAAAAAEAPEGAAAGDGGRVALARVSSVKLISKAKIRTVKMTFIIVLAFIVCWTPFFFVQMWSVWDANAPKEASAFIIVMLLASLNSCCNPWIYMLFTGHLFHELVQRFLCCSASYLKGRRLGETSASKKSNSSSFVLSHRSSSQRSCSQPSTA
Description: Oxytocin receptor assay, human myometrial tissue membranes, 3H-OT competition. In kind it is binding. As for the experimental part:
Human myometrial tissue was collected from patients at the time of cesarian section after informed consent. The tissue was rinsed in cold buffer, cut into small pieces and frozen at -70° C. until homogenization.
as §1, §2, §3

Starred links: 1 amine or outer side, 2 acyl side, 3 side chain; linkers in the order of their positions; H or OH if unused. Positions of bridges follow the written chain, without caps; N, C: chain ends. Non-standard residues stand in square brackets, D forms with d. Residues, ends and D or L forms follow the SMILES beside them. X1 = O=C(CC1(S[*:2])CCCCC1)[*:1]

Consider 2 compounds from US5373089A, “Oxytocin antagonist” (Northwestern University, priority 1993, dated 1994).

The term Kd denotes the free concentration of one partner at which half of the binding sites on the other are occupied at equilibrium, for simple one-to-one binding. Low values mean higher affinity, high ones lower affinity.

For the compound “[(S)Pmp^1,D-Trp^2,Pen^6,Arg^8 ] oxytocin [Compound D]”, the “RECEPTOR ASSAY Ka” value on RAT OXYTOCIN RECEPTOR (pregnant rat uterus (P21), Table 3) was 24.40 10^+8 M^-1. Moreover, the “rOTr (OTA/ANTI)” value at RAT OXYTOCIN RECEPTOR (ratio of binding affinity to ANTAG I, rat oxytocin receptor) was found to be 20.0. In addition, the “ARI (antagonists-response interval)” value in the assay on pregnant baboon (1 mg single bolus intra-arterially, then oxytocin infusion, pregnant baboon day 130-145) was 7856. Also, the “time for which the response to oxytocin was blocked” value in the assay on pregnant baboon (one mg, pregnant baboon) was “greater than 24 hours”. The entries for the “ARI (OTA/ANTI)” value in the assay with pregnant baboon, in the assay on pregnant baboon (listed as ANTAG III) and in the assay with pregnant baboon (listed as compound D) were 133, 133 and “about 130”, respectively.
For the compound `CC[C@H](C)[C@@H]1NC(=O)[C@H](Cc2ccccc2)NC(=O)[C@@H](Cc2c[nH]c3ccccc23)NC(=O)CC2(CCCCC2)SSC[C@@H](C(=O)N2CCC[C@H]2C(=O)N[C@@H](CCCNC(=N)N)C(=O)NCC(N)=O)NC(=O)[C@H](CC(N)=O)NC1=O` [Compound B, [Pmp^1,D-Trp^2,Phe^3,Ile^4,Arg^8] oxytocin] ([dW]FINCPRG-NH2; linker N-5 via X1), the Kd is 8.62 nM at RAT OXYTOCIN RECEPTOR and 19.6 nM on HUMAN OXYTOCIN RECEPTOR.
